Measured values reported in patent US11267802B2 (BEBETTER MED INC., priority 2015, dated 2022).

Legend:
EGFR T790M/L858R = molecular target: T1, EGFR T790M/L858R (Homo sapiens, UniProt P00533, L858R/T790M); test: Mutant EGFR T790M/L858R activity inhibition assay (Caliper mobility shift); type: biochemical; conditions: read-out: enzyme activity inhibition (IC50) EGFR T790M/L858R
T1 construct: purchased Invitrogen PR8911A
Experimental: The assay procedure is as follows. […] 5 μl of the compound dissolved in 10% DMSO at a concentration of 5-fold of the final reaction concentration was added to a 384 well plate. 5 μl of 10% DMSO was used in a no-compound control well, while 5 μl of a kinase buffer was used in a no-enzyme activity control well. […] The conversion rate was read on Caliper EZ Reader II (Caliper Life Sciences). The conversion rate was then converted to inhibitory rate.
As used herein, “max” refers to the conversion rate of the DMSO no-compound control well, and “min” refers to the conversion rate of the no-enzyme activity control well. A curve was obtained by plotting the inhibitory rate as a function of the compound concentration. The XLFit excel add-in version 4.3.1 software was used to fit the curve and calculate the IC50. Inhibitory rate %=(max−conversion rate)/(max−min)×100.

H1975 = test: Inhibition assay on tumor cell proliferation (CellTiter-Glo), H1975; type: cell-based, Human; conditions: H1975 (L858R and T790M EGFR double mutation), 72 hours, 10% bovine serum
LOVO = test: Inhibition assay on tumor cell proliferation (CellTiter-Glo), LOVO; type: cell-based, Human; conditions: LOVO (wild-type EGFR), 72 hours, 10% bovine serum
Experimental: (§1) By using a CellTiter-Glo luminescence cell viability test kit (Promega, # G7572), the content of adenosine triphosphate (ATP) was determined to assess the cell viability.
(§2) Human colon cancer cell line LOVO and human non-small-cell lung cancer H358 express wild-type EGFR. Human non-small-cell lung cancer cell line HCC827 carries deletion mutation in exon 19 (ex19del). Those cell lines are purchased from Shanghai Fudan IBS Cell Resource Center and American Tissue Culture Collection (ATCC).
(§3) The assay procedure is as follows. The cells in a cell culture plate were digested with a pancreatic enzyme, re-suspended in a DPBS culture medium, and had the cell density counted by Scepter automated cytometer (Millipore # PHCC00000). The cells were diluted to a solution of 44,000 cells per ml. The cell solution with adjusted density was added to the cell assay plate at 90 microliters per well. The plate was placed in an incubator with 5% CO2 at 37° C. for 24 hours of incubation, and then added with different concentrations of subject compounds. The cells were incubated for 72 hours with the compounds in presence of 10% bovine serum. The content of ATP was determined by a CellTiter-Glo® Luminescent Cell Viability Assay kit (see the manufacturer's instruction for details) to evaluate cell-growth inhibition.
(§4) Briefly, 30 μl of CellTiter-Glo® reagent was added to each well, and then shaken for 10 minutes to induce cell lysis. The fluorescent signal was detected and recorded by Fluoroskan Ascent FL (Thermo). The max signal value was obtained from the cells treated by dimethyl sulfoxide for 72 hours. The min signal value was obtained from the medium alone (the number of the cells was 0). Inhibitory rate %=(max signal value−compound signal value)/(max signal value−min signal value)×100. The data was processed by GraphPad Prism V5.0 software (GraphPad Software, San Diego, Calif.). Sigmoidal dose-response curve fitting was performed to calculate the IC50 value.

H358 = test: Inhibition assay on tumor cell proliferation (CellTiter-Glo), H358; type: cell-based, Human; conditions: H358 (wild-type EGFR), 72 hours, 10% bovine serum
Experimental: as §1, §2, §3, §4

[1] = Pharmacokinetics in rats after oral administration; type: in vivo, SD rats; conditions: for AUC(0-inf) / Cmax / Tmax / half-life / AUC(0-t): male, SD, rat, 20 mg/kg, plasma; for AUC(0-t): read-out: AUC0-24
Experimental: Male SD rats weighing 250-300 g, or male beagles weighing 9-10 kg, were fasted overnight before the experiment. The object compounds were dissolved in 30% sulfobutylated beta-cyclodextrin (SBE-β-CD), and orally administrated to the rats at a dose of 20 mg/kg or to the beagles at a dose of 5 mg/kg. Blood samples were taken at 15 minutes, 30 minutes, 1 hour, 2 hours, 3 hours, 4 hours, 6 hours, 8 hours and 24 hours after administration. 0.3 ml of blood was collected at every time point, placed in a centrifuge tube containing K2-EDTA (ethylenediamine tetraacetic acid dipotassium) and centrifuged (2,000 g, 10 minutes, 4° C.) to collect plasma, which was then stored in an ultra cold storage freezer at −80° C. 50 μL of plasma sample was mixed with 5 μL of internal standard (IS), and then extracted with ethyl acetate. After vacuum drying, the residue was re-dissolved in acetonitrile. The sample was filtered and injected into LC-MS/MS for analysis.

T1 sequence (P00533 25-1210 T790M/L858R): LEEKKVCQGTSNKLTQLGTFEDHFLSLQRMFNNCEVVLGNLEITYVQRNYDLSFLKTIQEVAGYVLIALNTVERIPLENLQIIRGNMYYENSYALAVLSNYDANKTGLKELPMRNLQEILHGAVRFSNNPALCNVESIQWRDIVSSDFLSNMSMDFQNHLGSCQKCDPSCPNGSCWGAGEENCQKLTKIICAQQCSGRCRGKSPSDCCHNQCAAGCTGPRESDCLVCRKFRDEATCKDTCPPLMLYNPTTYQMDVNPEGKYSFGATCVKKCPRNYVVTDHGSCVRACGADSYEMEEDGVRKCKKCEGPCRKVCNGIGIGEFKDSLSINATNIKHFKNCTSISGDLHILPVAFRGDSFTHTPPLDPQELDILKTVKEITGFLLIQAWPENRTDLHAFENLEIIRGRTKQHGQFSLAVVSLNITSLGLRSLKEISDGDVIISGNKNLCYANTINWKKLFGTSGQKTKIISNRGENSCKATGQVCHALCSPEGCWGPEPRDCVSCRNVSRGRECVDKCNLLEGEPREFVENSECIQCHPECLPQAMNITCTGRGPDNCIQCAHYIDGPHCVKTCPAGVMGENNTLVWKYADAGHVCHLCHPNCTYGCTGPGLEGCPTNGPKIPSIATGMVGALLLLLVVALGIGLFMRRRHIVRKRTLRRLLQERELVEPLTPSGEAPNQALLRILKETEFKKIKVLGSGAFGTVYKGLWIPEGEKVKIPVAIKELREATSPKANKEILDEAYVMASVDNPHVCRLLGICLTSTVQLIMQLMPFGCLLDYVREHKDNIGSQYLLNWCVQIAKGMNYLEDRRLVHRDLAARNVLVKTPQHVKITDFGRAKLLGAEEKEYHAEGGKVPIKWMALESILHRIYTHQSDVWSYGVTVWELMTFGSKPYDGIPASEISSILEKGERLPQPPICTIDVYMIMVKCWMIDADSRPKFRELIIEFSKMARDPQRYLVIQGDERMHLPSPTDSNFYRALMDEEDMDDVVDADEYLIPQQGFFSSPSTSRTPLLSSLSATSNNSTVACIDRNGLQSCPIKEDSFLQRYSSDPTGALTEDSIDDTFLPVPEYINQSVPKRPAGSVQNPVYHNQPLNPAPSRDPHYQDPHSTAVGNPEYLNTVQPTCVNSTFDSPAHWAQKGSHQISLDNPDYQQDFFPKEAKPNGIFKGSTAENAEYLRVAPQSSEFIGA

SMILES	IC50 (EGFR T790M/L858R)	IC50 (H1975; Homo sapiens, NCI-H1975)	IC50 (LOVO; Homo sapiens)	IC50 (H358; Homo sapiens, NCI-H358)	melting point	IC50 (H1975)	IC50 (LOVO)	IC50 (H358)	absorption / blood exposure after oral administration (in words) [1]	AUC(0-inf) [1]	Cmax [1]	Tmax [1]	half-life [1]	AUC(0-t) [1]
C=CC(=O)Nc1cc(Nc2ncc(C(F)(F)F)c(-n3ccc4ccccc43)n2)c(OC)cc1N(C)CCN(C)C [Compound 5, N-(5-((4-(1H-indol-1-yl)-5-(trifluoromethyl)pyrimidin-2-yl)amino)-2-((2-(dimethylamino)ethyl)(methyl)amino)-4-methoxyphenyl)acrylamide]	1 to 10 nM	< 10 nM	> 1000 nM	100 to 1000 nM	161 to 162 °C	–	–	–	–	–	–	–	–	–
C=CC(=O)Nc1cc(Nc2ncc(C)c(-n3ccc4ccccc43)n2)c(OC)cc1N(C)CCN(C)C [Compound 8, N-(5-((4-(1H-indol-1-yl)-5-methylpyrimidin-2-yl)amino)-2-((2-(dimethylamino)ethyl)(methyl)amino)-4-methoxyphenyl)acrylamide]	< 1 nM	< 10 nM	> 1000 nM	100 to 1000 nM	–	–	–	–	–	–	–	–	–	–
C=CC(=O)Nc1cc(Nc2nccc(-n3ccc4cc([N+](=O)[O-])ccc43)n2)c(OC)cc1N(C)CCN(C)C [Compound 34, N-{2-[(2-Dimethylamino-ethyl)-methyl-amino]-4-methoxy-5-[4-(5-nitro-indol-1-yl)-pyrimidin-2-ylamino]-phenyl}-acryl amide]	1 to 10 nM	< 10 nM	> 1000 nM	100 to 1000 nM	–	–	–	–	–	–	–	–	–	–
C=CC(=O)Nc1cc(Nc2nccc(-n3c(=O)n(C)c4cc(OC)ccc43)n2)c(OC)cc1N(C)CCN(C)C [Compound 53, N-(2-((2-(dimethylamino)ethyl) (methyl)amino)-4-methoxy-5-((4-(5-methoxy-3-methyl-2-oxo-2,3-dihydro-1H-benzo[d]imidazol-1-yl)pyrimidin-2-yl)amino)phenyl)acryl amide]	< 1 nM	–	–	–	–	10 to 50 nM	> 1000 nM	50 to 100 nM	–	–	–	–	–	–
C=CC(=O)Nc1cc(Nc2nccc(-n3c(=O)n(CC=C(C)C)c4ccccc43)n2)c(OC)cc1N(C)CCN(C)C [Compound 62, N-(2-((2-(dimethylamino)ethyl)(methyl)amino)-4-methoxy-5-(4-(3-(3-methylbut-2-enyl)-2-oxo-2,3-dihydro-1H-benzo[d]imidazol-1-yl)pyrimidin-2-ylamino)phenyl)acrylamide]	< 1 nM	< 10 nM	–	100 to 1000 nM	187 to 188 °C	–	–	–	well absorbed, with high blood exposure	920 ng·h/mL	84 ng/mL	3.7 h	408 min	834 ng·h/mL
COc1cc(N(C)CCN(C)C)c(NC(=O)/C=C/CN2CCCCC2)cc1Nc1nccc(-n2ccc3ccccc32)n1 [Compound 70, (E)-N-(5-(4-(1H-indol-1-yl)pyrimidin-2-ylamino)-2-((2-(dimethylamino)ethyl)(methyl)amino)-4-methoxyphenyl)-4-(piperidin-1-yl)but-2-enamide]	1 to 10 nM	100 to 1000 nM	100 to 1000 nM	100 to 1000 nM	–	–	–	–	–	–	–	–	–	–
C=CC(=O)Nc1cc(Nc2nccc(-n3ccc4ccccc43)n2)c(OC)cc1N1CC(N(C)C)C1 [Compound 77, N-(5-(4-(1H-indol-1-yl)pyrimidin-2-ylamino)-2-(3-(dimethylamino)azetidin-1-yl)-4-methoxyphenyl)acrylamide]	1 to 10 nM	10 to 50 nM	> 1000 nM	–	81 to 83 °C	–	–	–	–	–	–	–	–	–
C=CC(=O)Nc1cc(Nc2nccc(-n3ccc4nc(Cl)ccc43)n2)c(OC)cc1N(C)CCN(C)C [Compound 124, N-(5-((4-(5-chloro-1H-pyrrolo[3,2-b]pyridin-1-yl)pyrimidin-2-yl)amino)-2-((2-(dimethylamino)ethyl)(methyl)amino)-4-methoxyphenyl)acrylamide]	< 1 nM	< 10 nM	–	100 to 1000 nM	127 to 129 °C	–	–	–	well absorbed, with high blood exposure	1790 ng·h/mL	327 ng/mL	1.7 h	366 min	1700 ng·h/mL
C=CC(=O)Nc1cc(Nc2nccc(-n3c(=O)n(C(C)C)c4ccccc43)n2)c(C)cc1N(C)CCN(C)C [Compound 127, N-(2-((2-(dimethylamino)ethyl)(methyl)amino)-5-((4-(3-isopropyl-2-oxo-2,3-dihydro-1H-benzo[d]imidazol-1-yl)pyrimidin-2-yl)amino)-4-methylphenyl)acrylamide]	< 1 nM	< 10 nM	–	> 1000 nM	179 to 181 °C	–	–	–	–	–	–	–	–	–
C=CC(=O)Nc1cc(Nc2nccc(-n3c(=O)n(C(C)C)c4ccccc43)n2)ccc1N(C)CCN(C)C [Compound 128, N-(2-((2-(dimethylamino)ethyl)(methyl)amino)-5-((4-(3-isopropyl-2-oxo-2,3-dihydro-1H-benzo[d]imidazol-1-yl)pyrimidin-2-yl)amino)phenyl)acrylamide]	< 1 nM	< 10 nM	–	100 to 1000 nM	85 to 90 °C	–	–	–	–	–	–	–	–	–
C=CC(=O)Nc1cc(Nc2ncc(OC)c(-n3c(=O)n(C(C)C)c4ccccc43)n2)c(OC)cc1N(C)CCN(C)C [Compound 133, N-(2-((2-(dimethylamino)ethyl) (methyl)amino)-5-((4-(3-isopropyl-2-oxo-2,3-dihydro-1H-benzo[d]imidazol-1-yl)-5-methoxypyrimidin-2-yl)amino)-4-methoxyphenyl)acrylamide]	1 to 10 nM	< 10 nM	–	> 1000 nM	92 to 95 °C	–	–	–	–	–	–	–	–	–
C=CC(=O)Nc1cc(Nc2ncc(N(C)C)c(-n3c(=O)n(C(C)C)c4ccccc43)n2)c(OC)cc1N(C)CCN(C)C [Compound 135, N-(5-((5-(dimethylamino)-4-(3-isopropyl-2-oxo-2,3-dihydro-1H-benzo[d]imidazol-1-yl)pyrimidin-2-yl)amino)-2-((2-(dimethylamino)ethyl)(methyl)amino)-4-methoxyphenyl)acrylamide]	1 to 10 nM	10 to 50 nM	–	> 1000 nM	114.6 to 116.2 °C	–	–	–	–	–	–	–	–	–
C=CC(=O)Nc1cc(Nc2nccc(-n3c(=O)n(C(C)C)c4cc(OC)ccc43)n2)c(OC)cc1N(C)CCN(C)C [Compound 138, N-(2-((2-(dimethylamino)ethyl)(methyl)amino)-5-((4-(3-isopropyl-5-methoxy-2-oxo-2,3-dihydro-1H-benzo[d]imidazol-1-yl)pyrimidin-2-yl)amino)-4-methoxyphenyl)acrylamide]	1 to 10 nM	< 10 nM	–	100 to 1000 nM	95 to 98 °C	–	–	–	–	–	–	–	–	–
C=CC(=O)Nc1cc(Nc2nccc(-n3c(=O)n(C(C)C)c4cc(O)ccc43)n2)c(OC)cc1N(C)CCN(C)C [Compound 139, N-(2-((2-(dimethylamino)ethyl)(methyl)amino)-5-((4-(5-hydroxy-3-isopropyl-2-oxo-2,3-dihydro-1H-benzo[d]imidazol-1-yl)pyrimidin-2-yl)amino)-4-methoxyphenyl)acrylamide]	< 1 nM	< 10 nM	–	100 to 1000 nM	115 to 117 °C	–	–	–	–	–	–	–	–	–
